One assay has as its target ATM (Homo sapiens (Human), UniProt Q13315). As to the kind of experiment: ATM in Cell Western Assay (pKAP1 in etoposide-treated MCF-7 cells). The format is cell-based. The method, boiled down:
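After paraformaldehyde fixation and Triton X-100 permeabilization, immunostained plates were read by infrared scanning (ODYSSEY CLx). Compound was given as 10 doses, 3-fold dilutions from a 1 μM final top concentration.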

The target of the next assay is DNA-PK (Homo sapiens (Human), UniProt P78527). Nature of the assay: DNA-PK Enzyme-Linked Immunosorbent Assay (phosphorylation of GST-p53 (1-101) peptide). The format is biochemical. Conditions: ELISA. The method, boiled down: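 Inhibition measured by 450 nm absorbance after HRP/TMB detection of phospho-Ser15 on immobilized GST-p53 (1-101). The kinase reaction used 0.1 μg/mL DNA-PK and 20 μM ATP, 1 h at 25 °C. Ten 3-fold compound dilutions, top final concentration 100 nM.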
For orientation: ELISA stands for enzyme-linked immunosorbent assay.

Where [1] appears, read: MCF-7 cells, etoposide 100 μM, 1 hr, pKAP1 readout.

Counter-ions that a name gives are not always drawn.

This is an account of results in patent publication US12187742B2 (XRAD Therapeutics, Inc., priority 2018, dated 2025).

Sequence of ATM (Q13315 whole entry): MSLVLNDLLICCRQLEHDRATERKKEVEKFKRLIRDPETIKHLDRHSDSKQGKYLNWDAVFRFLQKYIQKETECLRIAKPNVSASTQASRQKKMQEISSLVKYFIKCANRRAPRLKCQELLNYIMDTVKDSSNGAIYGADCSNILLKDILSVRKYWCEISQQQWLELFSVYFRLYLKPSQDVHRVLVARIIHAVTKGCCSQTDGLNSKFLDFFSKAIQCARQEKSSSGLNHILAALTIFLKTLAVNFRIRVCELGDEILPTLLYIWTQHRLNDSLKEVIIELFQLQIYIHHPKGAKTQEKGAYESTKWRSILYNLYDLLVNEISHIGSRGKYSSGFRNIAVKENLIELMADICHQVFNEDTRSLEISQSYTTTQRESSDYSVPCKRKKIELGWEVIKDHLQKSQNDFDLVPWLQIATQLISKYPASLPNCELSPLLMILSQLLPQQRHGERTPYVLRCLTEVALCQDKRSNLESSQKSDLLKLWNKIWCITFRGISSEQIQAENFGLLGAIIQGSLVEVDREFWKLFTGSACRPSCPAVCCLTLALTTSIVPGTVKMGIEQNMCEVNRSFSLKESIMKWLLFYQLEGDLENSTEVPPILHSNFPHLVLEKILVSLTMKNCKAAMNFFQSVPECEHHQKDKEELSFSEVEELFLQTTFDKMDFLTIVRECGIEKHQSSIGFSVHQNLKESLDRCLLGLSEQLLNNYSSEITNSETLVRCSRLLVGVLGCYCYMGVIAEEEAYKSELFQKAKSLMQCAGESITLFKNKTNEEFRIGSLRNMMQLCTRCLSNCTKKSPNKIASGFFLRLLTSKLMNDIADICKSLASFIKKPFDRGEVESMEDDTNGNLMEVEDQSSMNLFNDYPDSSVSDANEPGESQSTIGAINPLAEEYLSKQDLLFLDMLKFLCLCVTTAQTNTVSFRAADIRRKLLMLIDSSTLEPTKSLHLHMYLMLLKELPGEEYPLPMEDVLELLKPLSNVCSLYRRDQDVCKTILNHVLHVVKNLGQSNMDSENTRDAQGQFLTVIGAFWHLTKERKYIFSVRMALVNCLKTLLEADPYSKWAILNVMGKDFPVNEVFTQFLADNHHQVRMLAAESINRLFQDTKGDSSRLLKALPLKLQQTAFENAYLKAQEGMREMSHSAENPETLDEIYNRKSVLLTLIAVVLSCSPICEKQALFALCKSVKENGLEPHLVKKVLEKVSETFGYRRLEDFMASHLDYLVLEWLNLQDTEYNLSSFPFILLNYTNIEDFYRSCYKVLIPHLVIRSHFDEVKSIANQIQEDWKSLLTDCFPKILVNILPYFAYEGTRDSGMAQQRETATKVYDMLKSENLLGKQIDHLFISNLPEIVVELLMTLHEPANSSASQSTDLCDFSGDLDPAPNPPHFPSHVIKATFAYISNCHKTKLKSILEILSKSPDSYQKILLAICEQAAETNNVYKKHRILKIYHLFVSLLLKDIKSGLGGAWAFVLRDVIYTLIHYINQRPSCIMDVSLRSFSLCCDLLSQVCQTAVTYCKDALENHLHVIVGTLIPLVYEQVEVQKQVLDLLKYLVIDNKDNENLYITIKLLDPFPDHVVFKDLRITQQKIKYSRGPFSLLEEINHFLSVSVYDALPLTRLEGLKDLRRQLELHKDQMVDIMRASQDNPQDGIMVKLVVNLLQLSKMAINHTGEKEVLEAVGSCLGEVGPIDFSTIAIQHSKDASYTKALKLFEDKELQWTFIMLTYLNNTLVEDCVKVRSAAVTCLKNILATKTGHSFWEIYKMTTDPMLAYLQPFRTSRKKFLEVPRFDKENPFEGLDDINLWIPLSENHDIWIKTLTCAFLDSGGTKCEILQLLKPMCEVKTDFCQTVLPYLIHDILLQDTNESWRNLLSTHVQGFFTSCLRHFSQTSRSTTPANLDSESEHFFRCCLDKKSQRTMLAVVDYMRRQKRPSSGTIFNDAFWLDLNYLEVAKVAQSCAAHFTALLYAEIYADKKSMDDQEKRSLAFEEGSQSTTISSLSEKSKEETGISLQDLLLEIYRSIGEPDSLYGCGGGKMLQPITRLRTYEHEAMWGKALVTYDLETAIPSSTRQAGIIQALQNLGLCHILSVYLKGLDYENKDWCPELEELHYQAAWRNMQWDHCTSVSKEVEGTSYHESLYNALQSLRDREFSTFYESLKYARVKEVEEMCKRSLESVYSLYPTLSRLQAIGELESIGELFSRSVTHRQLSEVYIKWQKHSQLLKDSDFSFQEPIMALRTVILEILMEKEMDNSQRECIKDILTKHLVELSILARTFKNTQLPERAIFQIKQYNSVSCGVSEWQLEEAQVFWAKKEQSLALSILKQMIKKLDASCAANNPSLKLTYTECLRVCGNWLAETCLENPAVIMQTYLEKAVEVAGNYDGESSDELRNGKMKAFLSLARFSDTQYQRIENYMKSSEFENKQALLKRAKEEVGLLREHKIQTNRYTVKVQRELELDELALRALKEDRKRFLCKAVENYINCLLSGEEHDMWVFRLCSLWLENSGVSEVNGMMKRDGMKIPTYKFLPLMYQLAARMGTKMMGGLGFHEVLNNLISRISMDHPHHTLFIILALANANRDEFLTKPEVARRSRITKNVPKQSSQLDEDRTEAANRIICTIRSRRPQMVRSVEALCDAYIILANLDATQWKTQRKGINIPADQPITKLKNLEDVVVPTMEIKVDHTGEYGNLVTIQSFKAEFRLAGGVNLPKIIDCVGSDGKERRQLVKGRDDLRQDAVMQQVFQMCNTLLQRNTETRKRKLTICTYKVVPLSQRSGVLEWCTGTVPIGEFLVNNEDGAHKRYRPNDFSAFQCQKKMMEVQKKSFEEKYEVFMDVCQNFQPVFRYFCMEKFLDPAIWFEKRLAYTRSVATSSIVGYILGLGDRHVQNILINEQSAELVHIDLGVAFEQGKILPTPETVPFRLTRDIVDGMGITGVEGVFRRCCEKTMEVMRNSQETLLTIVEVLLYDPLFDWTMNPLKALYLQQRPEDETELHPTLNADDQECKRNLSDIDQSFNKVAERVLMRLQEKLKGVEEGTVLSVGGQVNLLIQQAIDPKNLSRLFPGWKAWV

By IC50 is commonly meant the concentration that inhibits the measured activity by half. Read a low IC50 as greater potency in that assay. Take `CN(C)CCOc1ncc(-c2ccc3ncc4c(c3c2)C2(CCCC2)C(=O)N4C)cc1NS(=O)(=O)c1ccccc1` [Example 6, N-(2-(2-(Dimethylamino)ethoxy)-5-(3′-methyl-2′-oxo-2′,3′-dihydrospiro[cyclopentane-1,1′-pyrrolo[2,3-c]quinolin]-8′-yl)pyridin-3-yl)benzenesulfonamide]: the half-maximal inhibitory concentration (IC50) was in the range of 1 to 100 nM against ATM (setting [1]) and 0.5 to 1 nM against DNA-PK (ATP 20 μM).

For the molecule `CN1C(=O)C2(CCC2)c2c1cnc1ccc(-c3cnc(OCCCN4CCCC4)c(NS(=O)(=O)C4CC4)c3)cc21` [Example 235, N-(5-(3′-Methyl-2′-oxo-2′,3′-dihydrospiro[cyclobutane-1,1′-pyrrolo[2,3-c]quinolin]-8′-yl)-2-(3-(pyrrolidin-1-yl)propoxy)pyridin-3-yl)cyclopropanesulfonamide], the IC50 against ATM (setting [1]) and on DNA-PK (ATP 20 μM) was 1 to 100 nM throughout.

On to `CN(C)CCCOc1ncc(-c2ccc3ncc4c(c3c2)C2(CC2)C(=O)N4C)cc1NS(C)(=O)=O` [Example 64, N-(2-(3-(Dimethylamino)propoxy)-5-(3′-methyl-2′-oxo-2′,3′-dihydrospiro[cyclopropane-1,1′-pyrrolo[2,3-c]quinolin]-8′-yl)pyridin-3-yl) methanesulfonamide], for which the IC50 against ATM (setting [1]) is 1 to 100 nM; at DNA-PK (ATP 20 μM), less than 0.5 nM.

`COCCN(CCOC)S(=O)(=O)Nc1cc(-c2ccc3ncc4c(c3c2)C2(CCC2)C(=O)N4C)cnc1OCCCN(C)C` [Example 181, 8′-(5-{[Bis(2-methoxyethyl)sulfamoyl]amino}-6-[3-(dimethylamino)propoxy]pyridine-3-yl)-3′-methyl-2′,3′-dihydrospiro [cyclobutane-1,1′-pyrrolo[2,3-c]quinoline]-2′-one]: the IC50 against ATM (setting [1]) and on DNA-PK (ATP 20 μM) was 1 to 100 nM in each case.

On to `Cc1ccc(S(=O)(=O)Nc2cc(-c3ccc4ncc5c(c4c3)C3(CCC3)C(=O)N5C)cnc2N2CCC(N3CCCCC3)CC2)cc1` [Example 192, N-(2-(1,4-Bipiperidin]-1′-yl)-5-(3′-methyl-2′-oxo-2′,3′-dihydrospiro[cyclobulane-1,1′-pyrrolo[2,3-c]quinolin]-8′-yl)pyridin-3-yl)-4-methylbenzenesulfonamide hydrochloride], for which the IC50 at ATM (setting [1]) and at DNA-PK (ATP 20 μM) was 1 to 100 nM throughout.

`CN(C)CCCOc1ncc(-c2ccc3ncc4c(c3c2)C2(CCC2)C(=O)N4C)cc1NS(=O)(=O)C1CC1` [Example 190, N-(2-(3-(Dimethylamino)propoxy)-5-(3′-methyl-2′-oxo-2′,3′-dihydrospiro[cyclobulane-1,1′-pyrrolo[2,3-c]quinolin]-8′-yl)pyridin-3-yl)cyclopropanesulfonamide]: the IC50 at ATM (setting [1]) and at DNA-PK (ATP 20 μM) was 1 to 100 nM each time.

`CN(C)CCCCOc1ncc(-c2ccc3ncc4c(c3c2)C2(CC2)C(=O)N4C)cc1NS(=O)(=O)C1CC1` [Example 56, N-(2-(4-(Dimethylamino)butoxy)-5-(3′-methyl-2′-oxo-2′,3′-dihydrospiro [cyclopropane-1,1′-pyrrolo[2,3-c]quinolin]-8′-yl)pyridin-3-yl)cyclopropanesulfonamide]: the IC50 on ATM (setting [1]) and against DNA-PK (ATP 20 μM) was 1 to 100 nM throughout.

As for `CN1C(=O)C2(CC2)c2c1cnc1ccc(-c3cnc(OCCC4CCCN4C)c(NS(=O)(=O)C4CC4)c3)cc21` (stereo not drawn) [Example 79, N-(5-(3-Methyl-2′-oxo-2′,3′-dihydrospiro[cyclopropane-1,1′-pyrrolo[2,3-c]quinolin]-8′-yl)-2-(2-(1-methylpyrrolidin-2-yl)ethoxy)pyridin-3-yl)cyclopropanesulfonamide], the IC50 against ATM (setting [1]) and against DNA-PK (ATP 20 μM) was 1 to 100 nM in each case.

Consider `CC1CCC12C(=O)N(C)c1cnc3ccc(-c4cnc(N5CC(N(C)C)C5)c(NS(C)(=O)=O)c4)cc3c12` (stereo not drawn) [Example 325, N-(5-(2,3′-Dimethyl-2′-oxo-2′,3′-dihydrospiro[cyclobutane-1,1′-pyrrolo[2,3-c]quinolin]-8′-yl)-2-(3-(dimethylamino)azetidin-1-yl)pyridin-3-yl)methanesulfonamideformate], for which the IC50 on ATM (setting [1]) and on DNA-PK (ATP 20 μM) was 1 to 100 nM in each case.

Take `CN(C)CCCOc1ncc(-c2cc3c4c(cnc3cc2F)N(C)C(=O)C42CC2)cc1NS(=O)(=O)c1ccccc1` [Example 65, N-(2-(3-(Dimethylamino)propoxy)-5-(7′-fluoro-3′-methyl-2′-oxo-2′,3′-dihydrospiro [cyclopropane-1,1′-pyrrolo[2,3-c]quinolin]-8′-yl)pyridin-3-yl) benzenesulfonamide]: the concentration for half-maximal inhibition (IC50) on ATM (setting [1]) and on DNA-PK (ATP 20 μM) was 1 to 100 nM throughout.

As to `CN1C(=O)C2(CCC2)c2c1cnc1ccc(-c3cnc(N4CCC(N5CCOCC5)CC4)c(NS(=O)(=O)C4CC4)c3)cc21` [Example 356, N-(5-(3′-Methyl-2′-oxo-2′,3′-dihydrospiro[cyclobutane-1,1′-pyrrolo[2,3-c]quinolin]-8′-yl)-2-(4-morpholinopiperidin-l-yl)pyridin-3-yl)cyclopropanesulfonamide hydrochloride], the IC50 against ATM (pKAP1 in etoposide-treated MCF-7 cells) was less than 0.5 nM; against DNA-PK (20 μM ATP), 0.5 to 1 nM.

Take `CN1C(=O)C2(CCC2)c2c1cnc1cc(F)c(-c3cnc(N4CC(N(C)C)C4)c(NS(C)(=O)=O)c3)cc21` [Example 317, N-(2-(3-(Dimethylamino)azetidin-1-yl)-5-(7′-fluoro-3′-methyl-2′-oxo-2′,3′-dihydrospiro[cyclobulane-1,1′-pyrrolo[2,3-c]quinolin]-8′-yl)pyridin-3-yl)methanesulfonamide hydrochloride]: the IC50 on ATM (setting [1]) and at DNA-PK (ATP 20 μM) was 1 to 100 nM in each case.

As for `CNC1CN(c2ncc(-c3cc4c5c(cnc4cc3F)N(C)C(=O)C53CCC3)cc2NS(=O)(=O)C2CC2)C1` [Example 333, N-(5-(7′-Fluoro-3′-methyl-2′-oxo-2′,3′-dihydrospiro [cyclobutane-1,1′-pyrrolo [2,3-c]quinolin]-8′-yl)-2-(3-(methylamino)azetidin-1-yl)pyridin-3-yl)cyclopropanesulfonamide], the IC50 against ATM (setting [1]) and against DNA-PK (ATP 20 μM) was 0.5 to 1 nM each time.

For `Cl.[2H]C1([2H])N(CCCOc2ncc(-c3ccc4ncc5c(c4c3)C3(CCC3)C(=O)N5C)cc2NS(=O)(=O)c2ccc(C)nc2)C([2H])([2H])C([2H])([2H])C([2H])([2H])C1([2H])[2H]` [Example 221, 6-Methyl-N-(5-(3′-methyl-2′-oxo-2′,3′-dihydrospiro[cyclobulane-1,1′-pyrrolo[2,3-c]quinolin]-8′-yl)-2-(3-(piperidin-1-yl-d10)propoxy)pyridin-3-yl)pyridine-3-sulfonamide hydrochloride], the IC50 on ATM (setting [1]) lay within 1 to 100 nM; on DNA-PK (ATP 20 μM) it was 0.5 to 1 nM.

In the case of `CN(C)CCCOc1ncc(-c2cc3c4c(cnc3cc2F)N(C)C(=O)C42CC2)cc1NS(=O)(=O)c1ccc(Cl)cc1` [Example 129, 4-Chloro-N-(2-(3-(dimethylamino)propoxy)-5-(7′-fluoro-3′-methyl-2′-oxo-2′,3′-dihydrospiro[cyclopropane-1,1′-pyrrolo[2,3-c]quinolin]-8′-yl)pyridin-3-yl) benzenesulfonamide hydrochloride], the IC50 against ATM (setting [1]) and on DNA-PK (ATP 20 μM) was 1 to 100 nM in each case.

As to `CN(C)CCCOc1ncc(-c2ccc3ncc4c(c3c2)C2(CCC2)C(=O)N4C)cc1NS(=O)(=O)c1ccc(C(F)(F)F)cc1` [Example 186, N-(2-(3-(Dimethylamino)propoxy)-5-(3′-methyl-2′-oxo-2′,3′-dihydrospiro[cyclobutane-1,1′-pyrrolo[2,3-c]quinolin]-8′-yl)pyridin-3-yl)-4-(trifluoromethyl)benzenesulfonamide hydrochloride], the IC50 on ATM (setting [1]) and against DNA-PK (ATP 20 μM) was 1 to 100 nM throughout.

For `CN(C)CCCOc1ncc(-c2ccc3ncc4c(c3c2)C2(CC2)C(=O)N4C)cc1NS(=O)(=O)C1COC1` [Example 76], the 50% inhibitory concentration (IC50) against ATM (setting [1]) was in the range of 1 to 100 nM; against DNA-PK (ATP 20 μM), 0.5 to 1 nM.

Regarding `Cc1ccc(S(=O)(=O)Nc2cc(-c3ccc4ncc5c(c4c3)C3(CCC3)C(=O)N5C)cnc2OCCCN(C)C)cc1` [Example 145, N-(2-(3-(Dimethylamino)propoxy)-5-(3′-methyl-2′-oxo-2′,3′-dihydrospiro [cyclobulane-1,1′-pyrrolo[2,3-c]quinolin]-8′-yl)pyridin-3-yl)-4-methylbenzenesulfonamide hydrochloride], the IC50 was in the range of 1 to 100 nM against ATM (setting [1]) and 0.5 to 1 nM against DNA-PK (ATP 20 μM).

For `Cc1cc(-c2ccc3ncc4c(c3c2)C2(CC2)C(=O)N4C)cnc1OCCCN(C)C` [Example 57, 8′-(6-(3-(Dimethylamino)propoxy)-5-methylpyridin-3-yl)-3′-methylspiro[cyclopropane-1,1′-pyrrolo[2,3-c]quinolin]-2′(3′-H)-one], the IC50 against ATM (setting [1]) and on DNA-PK (ATP 20 μM) was 1 to 100 nM in each case.

For the molecule `CCN(C)C1CN(c2ncc(-c3ccc4ncc5c(c4c3)C3(CCC3)C(=O)N5C)cc2NS(C)(=O)=O)C1` [Example 326, N-(2-(3-(Ethyl(methyl)amino)azetidin-1-yl)-5-(3′-methyl-2′-oxo-2′,3′-dihydrospiro[cyclobutane-1,1′-pyrrolo[2,3-c]quinolin]-8′-yl)pyridin-3-yl)methanesulfonamide hydrochloride], the IC50 against ATM (setting [1]) was in the range of 1 to 100 nM; on DNA-PK (ATP 20 μM), 0.5 to 1 nM.

Consider `CN1CCN(c2ncc(-c3ccc4ncc5c(c4c3)C3(CC3)C(=O)N5C)cc2NS(=O)(=O)c2ccccc2)CC1` [Example 49, N-(5-(3′-Methyl-2′-oxo-2′,3′-dihydrospiro[cyclopropane-1,1′-pyrrolo[2,3-c]quinolin]-8′-yl)-2-(4-methylpiperazin-1-yl)pyridin-3-yl)benzenesulfonamide], for which the figures for the IC50 on ATM (setting [1]) and against DNA-PK (ATP 20 μM) were 0.5 to 1 nM and less than 0.5 nM, respectively.
